Measurements published in US20240092758A1, “IMIDAZOLO INDAZOLE COMPOUNDS AS JAK INHIBITORS” (Theravance Biopharma R&D IP, LLC, priority 2021, published 2024).

Legend:
JAK1 = JAK1 (Homo sapiens (Human), UniProt P23458); test: Biochemical JAK kinase assay (LanthaScreen), JAK1; conditions: for Ki: read-out: JAK1 pKi (converted)
Summary of the method: (§1)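 LanthaScreen format: phospho-STAT1 (pTyr701) detected with 2 nM Tb antibody after 10 mM EDTA quench. Kinase step used Km-level ATP and 200 nM STAT1 peptide, 1 h at ambient after 1 h pre-incubation. Inhibition fitted to IC50, reported as pKi.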

JAK2 = JAK2 (Homo sapiens (Human), UniProt O60674); test: Biochemical JAK kinase assay (LanthaScreen), JAK2; conditions: for Ki: read-out: JAK2 pKi (converted)
Summary of the method: as §1

JAK3 = JAK3 (Homo sapiens (Human), UniProt P52333); test: Biochemical JAK kinase assay (LanthaScreen), JAK3; conditions: read-out: JAK3 pKi (converted)
Procedure: (§2) A panel of four LanthaScreen JAK biochemical assays (JAK1, 2, 3 and Tyk2) were carried in a common kinase reaction buffer (50 mM HEPES, pH 7.5, 0.01% Brij-35, 10 mM MgCl2, and 1 mM EGTA). Recombinant GST-tagged JAK enzymes and a GFP-tagged STAT1 peptide substrate were obtained from Life Technologies.
(§3) Serially diluted compounds were pre-incubated with each of the four JAK enzymes and the substrate in white 384-well microplates (Corning) at ambient temperature for 1 h. ATP was subsequently added to initiate the kinase reactions in 10 μL total volume, with 1% DMSO. The final enzyme concentrations for JAK1, 2, 3 and Tyk2 are 4.2 nM, 0.1 nM, 1 nM, and 0.25 nM respectively; the corresponding Km ATP concentrations used are 25 μM, 3 μM, 1.6 μM, and 10 μM; while the substrate concentration is 200 nM for all four assays. Kinase reactions were allowed to proceed for 1 hour at ambient temperature before a 10 μL preparation of EDTA (10 mM final concentration) and Tb-anti-pSTAT1 (pTyr701) antibody (Life Technologies, 2 nM final concentration) in TR-FRET dilution buffer (Life Technologies) was added. The plates were allowed to incubate at ambient temperature for 1 h before being read on the EnVision reader (Perkin Elmer). Emission ratio signals (520 nm/495 nm) were recorded and utilized to calculate the percent inhibition values based on DMSO and background controls.
(§4) For dose-response analysis, percent inhibition data were plotted vs. compound concentrations, and IC50 values were determined from a 4-parameter robust fit model with the Prism software (GraphPad Software). Results were expressed as pIC50 (negative logarithm of IC50) and subsequently converted to pKi (negative logarithm of dissociation constant, Ki) using the Cheng-Prusoff equation.
(§5) Test compounds having a lower Ki value or higher pKi value in the four JAK assays show greater inhibition of JAK activity.

TYK2 = TYK2 (Homo sapiens (Human), UniProt P29597); test: Biochemical JAK kinase assay (LanthaScreen), Tyk2; conditions: read-out: Tyk2 pKi (converted)
Procedure: as §2, §3, §4, §5

[1] = tested on: IL-13 induced STAT6 phosphorylation in BEAS-2B human lung epithelial cells; test: Cellular JAKI potency assay (BEAS-2B); format: cell-based; conditions: Homo sapiens, BEAS-2B, BEAS-2B cells, read-out: BEAS2B pIC50 (converted)
Summary of the method: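 BEAS-2B cells were preincubated with compound (0.1% DMSO) in HBSS/HEPES/BSA for 1 h at 37 °C, then stimulated with IL-13 (80 ng/mL before addition) for 30 min. After lysis, pSTAT6 (Tyr641) was quantified by AlphaLISA SureFire; IC50 from a 4-parameter fit of percent inhibition, reported as pIC50.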

[2] = Pharmacokinetics in plasma and lung in mouse after oral aspiration administration; format: in vivo; conditions: male CD1 mice; for Lung Tissue AUC(0-24) / AUC(0-t): 0.2 mg/mL, two 25 μL increments; for Lung Tissue:Plasma AUC ratio: lung AUC to plasma AUC; for AUC(0-t): mouse, inhaled or intranasal, 0.01 mg/mouse, plasma, read-out: Plasma AUC(0-24)
Procedure: Plasma and lung concentrations of test compounds were quantified and pharmacokinetic parameters were calculated in the following manner. Male CD1 mice from Charles River Laboratories were used in the pharmacokinetic studies. Test compounds were individually formulated in 20% propylene glycol in pH 4 citrate buffer at a concentration of 0.2 mg/mL. Test compounds were administered in two, 25 μL increments introduced into the trachea of each mouse by oral aspiration using a calibrated pipette once the animal was anesthetized using isoflurane. Blood samples were collected as terminal collections via cardiac puncture at 0.167, 1, 4, 8, and 24 hr post-dosing. Following […] with CO2, a direct cardiac puncture was performed while avoiding puncturing the lung and blood was immediately transferred into K2EDTA tubes and placed on wet ice. Blood samples were centrifuged (Eppendorf centrifuge, 5804R) for 4 minutes at approximately 12,000 rpm at 4° C. to collect plasma. Intact lungs were also excised from these mice using the same timepoints (0.167, 1, 4, 8, and 24 hr). Lungs were washed with sterile water to remove any blood residue and were patted dry, weighed, and homogenized in 0.1% formic acid in water at a dilution of 1:3 (lung:water, weight/volume). Plasma and lung concentrations of test compounds were determined by LC-MS/MS analysis against analytical standards constructed into a standard curve in the test matrix. The pharmacokinetic parameters of test compounds were determined by non-compartmental analysis. For concentrations below the limit of quantification, zero was used for mean calculations. Mean values were not reported if more than 50% of the samples were below the limit of quantification at a timepoint, or if more than 50% of a calculated pharmacokinetic parameter was not reportable. The area under the concentration-time curve extrapolated to infinity (AUC(0-inf)) was calculated as follows: AUC(0-inf)=AUC(0-t)+Clast/k, where AUC(0-t) is the area under the concentration-time curve from the time of dosing to the last measurable concentration calculated by the linear trapezoidal rule, Clast is the last measurable concentration, and k is the first order rate constant associated with the terminal elimination phase, estimated by linear regression of time versus log concentration. The lung-to-plasma AUC ratio was determined as the ratio of the lung AUC(0-inf) in μg*hr/g to the plasma AUC(0-inf) in μg*hr/mL.

Chain of JAK1 (P23458 whole entry): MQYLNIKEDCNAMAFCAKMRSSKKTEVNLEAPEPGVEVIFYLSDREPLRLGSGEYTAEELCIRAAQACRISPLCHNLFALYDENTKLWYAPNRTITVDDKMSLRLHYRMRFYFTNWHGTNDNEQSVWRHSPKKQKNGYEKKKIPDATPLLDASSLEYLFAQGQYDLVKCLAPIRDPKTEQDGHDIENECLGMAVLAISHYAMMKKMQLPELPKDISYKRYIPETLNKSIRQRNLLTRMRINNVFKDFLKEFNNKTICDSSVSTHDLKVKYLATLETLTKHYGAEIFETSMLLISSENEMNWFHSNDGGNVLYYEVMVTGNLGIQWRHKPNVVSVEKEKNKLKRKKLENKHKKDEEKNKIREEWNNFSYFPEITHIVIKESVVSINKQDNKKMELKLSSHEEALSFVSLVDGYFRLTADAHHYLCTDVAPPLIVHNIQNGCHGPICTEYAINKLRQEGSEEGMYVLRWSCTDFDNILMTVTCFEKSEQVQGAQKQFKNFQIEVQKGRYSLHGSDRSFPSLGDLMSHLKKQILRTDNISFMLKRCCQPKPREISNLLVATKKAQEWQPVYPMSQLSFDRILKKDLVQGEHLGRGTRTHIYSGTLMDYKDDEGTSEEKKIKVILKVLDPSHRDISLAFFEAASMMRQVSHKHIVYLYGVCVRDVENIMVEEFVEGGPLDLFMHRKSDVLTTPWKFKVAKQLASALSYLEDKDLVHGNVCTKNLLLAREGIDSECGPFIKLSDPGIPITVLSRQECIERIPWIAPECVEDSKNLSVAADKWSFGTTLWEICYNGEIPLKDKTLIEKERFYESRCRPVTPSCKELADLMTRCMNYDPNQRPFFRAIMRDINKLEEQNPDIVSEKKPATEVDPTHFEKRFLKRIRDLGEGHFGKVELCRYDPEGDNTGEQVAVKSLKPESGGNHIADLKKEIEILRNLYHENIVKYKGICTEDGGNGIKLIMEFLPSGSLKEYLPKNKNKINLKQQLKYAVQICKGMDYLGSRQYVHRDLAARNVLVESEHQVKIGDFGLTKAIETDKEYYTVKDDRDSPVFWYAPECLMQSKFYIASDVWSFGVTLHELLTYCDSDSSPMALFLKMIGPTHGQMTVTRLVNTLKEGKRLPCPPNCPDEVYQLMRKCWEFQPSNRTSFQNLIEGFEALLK
Chain of TYK2 (P29597 whole entry): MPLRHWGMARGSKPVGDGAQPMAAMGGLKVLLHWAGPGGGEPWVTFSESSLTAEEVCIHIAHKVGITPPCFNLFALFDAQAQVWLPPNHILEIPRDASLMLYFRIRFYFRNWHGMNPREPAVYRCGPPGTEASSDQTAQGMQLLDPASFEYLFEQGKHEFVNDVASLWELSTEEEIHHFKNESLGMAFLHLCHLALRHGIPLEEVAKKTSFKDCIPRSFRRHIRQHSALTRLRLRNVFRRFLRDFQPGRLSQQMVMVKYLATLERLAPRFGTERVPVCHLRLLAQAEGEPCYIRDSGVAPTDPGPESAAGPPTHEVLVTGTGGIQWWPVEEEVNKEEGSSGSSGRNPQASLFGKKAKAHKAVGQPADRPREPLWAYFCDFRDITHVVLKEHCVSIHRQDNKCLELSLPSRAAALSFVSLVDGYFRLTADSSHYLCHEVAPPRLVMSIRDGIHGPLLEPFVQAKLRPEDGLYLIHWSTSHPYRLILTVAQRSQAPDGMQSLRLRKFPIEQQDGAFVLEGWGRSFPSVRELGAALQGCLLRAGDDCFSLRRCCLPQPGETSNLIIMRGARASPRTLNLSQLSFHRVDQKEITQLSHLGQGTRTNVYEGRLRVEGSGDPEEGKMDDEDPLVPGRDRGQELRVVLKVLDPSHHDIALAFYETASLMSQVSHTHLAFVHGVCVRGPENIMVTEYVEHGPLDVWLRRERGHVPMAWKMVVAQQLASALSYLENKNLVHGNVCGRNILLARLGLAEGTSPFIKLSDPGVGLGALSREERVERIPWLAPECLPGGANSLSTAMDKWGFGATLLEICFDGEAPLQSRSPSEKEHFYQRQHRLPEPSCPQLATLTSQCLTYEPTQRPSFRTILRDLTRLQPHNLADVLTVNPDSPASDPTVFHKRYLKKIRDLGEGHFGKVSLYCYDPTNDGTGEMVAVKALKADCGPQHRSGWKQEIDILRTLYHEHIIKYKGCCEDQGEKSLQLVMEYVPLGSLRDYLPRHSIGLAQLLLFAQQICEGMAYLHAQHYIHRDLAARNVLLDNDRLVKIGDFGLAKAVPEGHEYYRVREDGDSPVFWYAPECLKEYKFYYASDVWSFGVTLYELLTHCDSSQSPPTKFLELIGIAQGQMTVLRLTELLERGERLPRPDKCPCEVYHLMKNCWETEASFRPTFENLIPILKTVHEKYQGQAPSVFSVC
Chain of JAK3 (P52333 whole entry): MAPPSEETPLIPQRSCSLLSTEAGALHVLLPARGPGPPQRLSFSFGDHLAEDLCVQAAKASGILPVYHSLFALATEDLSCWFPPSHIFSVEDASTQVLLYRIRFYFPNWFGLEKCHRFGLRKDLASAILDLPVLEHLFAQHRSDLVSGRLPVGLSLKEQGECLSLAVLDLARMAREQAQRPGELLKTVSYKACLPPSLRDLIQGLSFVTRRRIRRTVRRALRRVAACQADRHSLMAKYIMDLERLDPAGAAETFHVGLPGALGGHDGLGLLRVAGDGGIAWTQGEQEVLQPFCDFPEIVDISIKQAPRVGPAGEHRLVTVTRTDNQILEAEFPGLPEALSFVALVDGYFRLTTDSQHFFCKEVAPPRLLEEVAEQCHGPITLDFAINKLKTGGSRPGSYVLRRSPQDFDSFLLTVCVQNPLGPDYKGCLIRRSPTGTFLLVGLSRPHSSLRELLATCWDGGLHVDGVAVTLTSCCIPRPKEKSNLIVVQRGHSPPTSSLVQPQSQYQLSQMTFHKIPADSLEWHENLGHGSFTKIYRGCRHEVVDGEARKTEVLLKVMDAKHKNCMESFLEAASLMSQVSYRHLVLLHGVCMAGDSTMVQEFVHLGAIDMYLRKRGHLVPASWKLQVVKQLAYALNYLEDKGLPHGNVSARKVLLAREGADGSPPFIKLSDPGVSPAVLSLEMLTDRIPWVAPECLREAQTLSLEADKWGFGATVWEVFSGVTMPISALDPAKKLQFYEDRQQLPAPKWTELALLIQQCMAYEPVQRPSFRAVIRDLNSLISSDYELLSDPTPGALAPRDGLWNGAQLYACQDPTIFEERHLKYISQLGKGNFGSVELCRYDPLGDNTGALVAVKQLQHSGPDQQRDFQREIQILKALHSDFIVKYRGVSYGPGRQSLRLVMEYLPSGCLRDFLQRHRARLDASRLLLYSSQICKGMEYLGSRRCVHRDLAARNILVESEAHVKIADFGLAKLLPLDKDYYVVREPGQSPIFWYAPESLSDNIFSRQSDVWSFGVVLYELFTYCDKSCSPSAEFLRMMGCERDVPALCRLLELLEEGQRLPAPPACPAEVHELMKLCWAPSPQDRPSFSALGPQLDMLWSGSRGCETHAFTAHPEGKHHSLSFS
Chain of JAK2 (O60674 whole entry): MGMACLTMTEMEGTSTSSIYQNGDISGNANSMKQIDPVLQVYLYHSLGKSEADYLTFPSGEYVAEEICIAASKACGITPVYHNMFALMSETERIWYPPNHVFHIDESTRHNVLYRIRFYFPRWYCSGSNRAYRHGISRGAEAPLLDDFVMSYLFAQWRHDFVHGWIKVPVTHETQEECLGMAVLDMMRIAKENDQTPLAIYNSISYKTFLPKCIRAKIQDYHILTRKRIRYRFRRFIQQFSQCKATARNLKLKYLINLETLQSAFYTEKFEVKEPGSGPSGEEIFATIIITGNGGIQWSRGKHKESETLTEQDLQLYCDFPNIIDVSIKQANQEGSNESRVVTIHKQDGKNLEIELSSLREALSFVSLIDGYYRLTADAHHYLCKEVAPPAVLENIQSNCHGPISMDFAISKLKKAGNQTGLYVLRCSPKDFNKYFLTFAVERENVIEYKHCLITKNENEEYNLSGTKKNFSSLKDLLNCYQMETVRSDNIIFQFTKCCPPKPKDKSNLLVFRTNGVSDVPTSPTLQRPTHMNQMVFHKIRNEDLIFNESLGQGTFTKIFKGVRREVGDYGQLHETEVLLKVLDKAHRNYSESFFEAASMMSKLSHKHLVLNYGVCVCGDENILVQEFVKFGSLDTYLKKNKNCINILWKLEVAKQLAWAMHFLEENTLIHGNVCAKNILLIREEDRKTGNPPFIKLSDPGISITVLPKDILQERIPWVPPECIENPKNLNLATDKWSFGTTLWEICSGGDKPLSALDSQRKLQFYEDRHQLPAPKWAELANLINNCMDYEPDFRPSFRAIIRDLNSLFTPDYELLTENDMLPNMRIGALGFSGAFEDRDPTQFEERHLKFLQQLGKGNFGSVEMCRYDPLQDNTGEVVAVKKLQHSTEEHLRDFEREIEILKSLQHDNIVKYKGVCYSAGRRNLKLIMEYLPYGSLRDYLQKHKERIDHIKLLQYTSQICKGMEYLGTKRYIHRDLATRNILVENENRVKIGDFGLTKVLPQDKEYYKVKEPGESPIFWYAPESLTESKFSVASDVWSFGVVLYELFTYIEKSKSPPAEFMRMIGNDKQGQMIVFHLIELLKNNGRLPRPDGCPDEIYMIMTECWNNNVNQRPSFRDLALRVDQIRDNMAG

Structure (SMILES) | JAK1 pKi (JAK1) | JAK2 pKi (JAK2) | Ki (JAK3) [nM] | Ki (TYK2) [nM] | IC50 [1] [nM] | Ki (JAK1) [nM] | Ki (JAK2) [nM] | Lung Tissue AUC(0-24) [2] | Lung Tissue:Plasma AUC ratio [2] | AUC(0-t) [2] [ng·h/mL]
CCc1cc(O)ccc1-c1ccc2c(-c3nc(C4=CCN(C)CC4)c[nH]3)n[nH]c2c1 [Example 19] | A (A represents a pKi value ≥10 (Ki≤0.1 nM)) | A (A represents a pKi value ≥10 (Ki≤0.1 nM)) | 0.1 to 1 | 0.1 to 1 | 3.16 to 10 | – | – | – | – | –
CCc1cc(O)ccc1-c1ccc2c(-c3nc(C4=CCN(C(C)C)CC4)c[nH]3)n[nH]c2c1 [Example 20] | A (A represents a pKi value ≥10 (Ki≤0.1 nM)) | A (A represents a pKi value ≥10 (Ki≤0.1 nM)) | 0.1 to 1 | 1 to 10 | 3.16 to 10 | – | – | – | – | –
CCc1cc(O)ccc1-c1ccc2c(-c3nc(C4=CCN(CC)CC4)c[nH]3)n[nH]c2c1F [Example 23] | – | – | 0.1 to 1 | 1 to 10 | 3.16 to 10 | 0.1 to 1 | 0.1 to 1 | – | – | –
CCCN1CC=C(c2c[nH]c(-c3n[nH]c4c(F)c(-c5ccc(O)cc5CC)ccc34)n2)CC1 [Example 24] | – | A (A represents a pKi value ≥10 (Ki≤0.1 nM)) | 0.1 to 1 | 1 to 10 | 3.16 to 10 | 0.1 to 1 | – | – | – | –
CCc1cc(O)ccc1-c1ccc2c(-c3nc(C4=CCN(CC(C)C)CC4)c[nH]3)n[nH]c2c1F [Example 25] | – | – | 0.1 to 1 | 10 to 100 | 10 to 31.6 | 0.1 to 1 | 0.1 to 1 | – | – | –
CCc1cc(O)ccc1-c1ccc2c(-c3nc(C4=CCCN(C)C4)c[nH]3)n[nH]c2c1 [Example 27] | A (A represents a pKi value ≥10 (Ki≤0.1 nM)) | A (A represents a pKi value ≥10 (Ki≤0.1 nM)) | 0.1 to 1 | 1 to 10 | 3.16 to 10 | – | – | – | – | –
CCc1cc(O)ccc1-c1ccc2c(-c3nc(C4=CCCN(C)C4)c[nH]3)n[nH]c2c1F [Example 29] | – | – | 0.1 to 1 | 1 to 10 | 3.16 to 10 | 0.1 to 1 | 0.1 to 1 | – | – | –
CCc1cc(O)ccc1-c1ccc2c(-c3nc(C4=CCCN(C(C)C)C4)c[nH]3)n[nH]c2c1F [Example 30] | – | – | 0.1 to 1 | 1 to 10 | 10 to 31.6 | 0.1 to 1 | 0.1 to 1 | – | – | –
CCc1cc(O)ccc1-c1ccc2c(-c3nc(C4=CCN(C)C4)c[nH]3)n[nH]c2c1F [Example 31] | – | – | 0.1 to 1 | 1 to 10 | 3.16 to 10 | 0.1 to 1 | 0.1 to 1 | – | – | –
CCc1cc(O)ccc1-c1ccc2c(-c3nc(C4=CCN(CCO)CC4)c[nH]3)n[nH]c2c1 [Example 33] | A (A represents a pKi value ≥10 (Ki≤0.1 nM)) | A (A represents a pKi value ≥10 (Ki≤0.1 nM)) | 0.1 to 1 | 0.1 to 1 | 3.16 to 10 | – | – | – | – | –
CCc1cc(O)ccc1-c1ccc2c(-c3nc(C4=CCN(CCCO)CC4)c[nH]3)n[nH]c2c1 [Example 34] | A (A represents a pKi value ≥10 (Ki≤0.1 nM)) | A (A represents a pKi value ≥10 (Ki≤0.1 nM)) | 0.1 to 1 | 1 to 10 | 3.16 to 10 | – | – | – | – | –
CCc1cc(O)ccc1-c1ccc2c(-c3nc(C4=CCN(CCO)CC4)c[nH]3)n[nH]c2c1F [Example 36] | A (A represents a pKi value ≥10 (Ki≤0.1 nM)) | – | 0.1 to 1 | 1 to 10 | 3.16 to 10 | – | 0.1 to 1 | – | – | –
CCc1cc(O)ccc1-c1ccc2c(-c3nc(C4=CCCN(CCCO)C4)c[nH]3)n[nH]c2c1 [Example 42] | A (A represents a pKi value ≥10 (Ki≤0.1 nM)) | A (A represents a pKi value ≥10 (Ki≤0.1 nM)) | 0.1 to 1 | 1 to 10 | 3.16 to 10 | – | – | – | – | –
CCc1cc(O)ccc1-c1ccc2c(-c3nc(C4=CCN(CCO)C4)c[nH]3)n[nH]c2c1 [Example 50] | A (A represents a pKi value ≥10 (Ki≤0.1 nM)) | A (A represents a pKi value ≥10 (Ki≤0.1 nM)) | 0.1 to 1 | 0.1 to 1 | 3.16 to 10 | – | – | – | – | –
CCc1cc(O)ccc1-c1ccc2c(-c3nc(C4=CCN(CCO)C4)c[nH]3)n[nH]c2c1F [Example 53] | A (A represents a pKi value ≥10 (Ki≤0.1 nM)) | A (A represents a pKi value ≥10 (Ki≤0.1 nM)) | 0.1 to 1 | 1 to 10 | 3.16 to 10 | – | – | – | – | –
CCc1cc(O)ccc1-c1ccc2c(-c3nc(C4=CCN(CCCO)C4)c[nH]3)n[nH]c2c1F [Example 54] | A (A represents a pKi value ≥10 (Ki≤0.1 nM)) | A (A represents a pKi value ≥10 (Ki≤0.1 nM)) | 0.1 to 1 | 1 to 10 | 3.16 to 10 | – | – | – | – | –
CCc1cc(O)ccc1-c1ccc2c(-c3nc(C4=CCN(C5COC5)CC4)c[nH]3)n[nH]c2c1 [Example 57] | – | – | 0.1 to 1 | 1 to 10 | 10 to 31.6 | 0.1 to 1 | 0.1 to 1 | – | – | –
CCc1cc(O)ccc1-c1ccc2c(-c3nc(C4=CCN(CCNS(C)(=O)=O)CC4)c[nH]3)n[nH]c2c1F [Example 106] | – | A (A represents a pKi value ≥10 (Ki≤0.1 nM)) | – | – | 10 to 31.6 | 0.1 to 1 | – | C (C denotes a value between 9 and 50) | C (C denotes a ratio between 100 and 200) | < 500
CCc1cc(O)ccc1-c1ccc2c(-c3nc(C4=C(C)CCNC4)c[nH]3)n[nH]c2c1F [Example 236] | – | – | – | – | 10 to 31.6 | 0.1 to 1 | 0.1 to 1 | B (B denotes a value between 50 and 100) | C (C denotes a ratio between 100 and 200) | 500 to 1000
CCc1cc(O)ccc1-c1ccc2c(-c3nc(C4=C[C@H](COC)NC4)c[nH]3)n[nH]c2c1 [Example 241] | – | – | – | – | 3.16 to 10 | 0.1 to 1 | 0.1 to 1 | C (C denotes a value between 9 and 50) | D (D denotes a ratio between 50 and 100) | 500 to 1000
CCc1cc(O)ccc1-c1ccc2c(-c3nc(C4=C[C@H](CC(=O)N(C)C)NC4)c[nH]3)n[nH]c2c1F [Example 255] | A (A represents a pKi value ≥10 (Ki≤0.1 nM)) | A (A represents a pKi value ≥10 (Ki≤0.1 nM)) | – | – | 10 to 31.6 | – | – | A (For the Lung Tissue AUC(0-24), A denotes a value between 100 and 200) | D (D denotes a ratio between 50 and 100) | 1000 to 1500
